Source: patent publication US20250367166A1, “NEXT GENERATION DIPROVOCIMS THAT ACTIVATE THE INNATE AND ADAPTIVE IMMUNE RESPONSE” (The Scripps Research Institute, priority 2022, published 2025)
Like-named read-outs stand apart in the source and are kept apart here.

What was measured:
[1] = biological target: TLR1/TLR2 (Mus musculus, UniProt Q9EPQ1+Q9QUN7); assay: TNF-α release from thioglycolate-elicited mouse peritoneal macrophages (ELISA); settings: for Emax: 4 h, read-out: Efficacy (magnitude) of response versus diprovocim-1 (100%), mouse macrophages; for EC50: read-out: EC50 (nM) (mouse): EC50 TNF-α release from mouse macrophages
Sequence of TLR1/TLR2 (Mus musculus, UniProt Q9EPQ1+Q9QUN7) (Q9EPQ1 26-795): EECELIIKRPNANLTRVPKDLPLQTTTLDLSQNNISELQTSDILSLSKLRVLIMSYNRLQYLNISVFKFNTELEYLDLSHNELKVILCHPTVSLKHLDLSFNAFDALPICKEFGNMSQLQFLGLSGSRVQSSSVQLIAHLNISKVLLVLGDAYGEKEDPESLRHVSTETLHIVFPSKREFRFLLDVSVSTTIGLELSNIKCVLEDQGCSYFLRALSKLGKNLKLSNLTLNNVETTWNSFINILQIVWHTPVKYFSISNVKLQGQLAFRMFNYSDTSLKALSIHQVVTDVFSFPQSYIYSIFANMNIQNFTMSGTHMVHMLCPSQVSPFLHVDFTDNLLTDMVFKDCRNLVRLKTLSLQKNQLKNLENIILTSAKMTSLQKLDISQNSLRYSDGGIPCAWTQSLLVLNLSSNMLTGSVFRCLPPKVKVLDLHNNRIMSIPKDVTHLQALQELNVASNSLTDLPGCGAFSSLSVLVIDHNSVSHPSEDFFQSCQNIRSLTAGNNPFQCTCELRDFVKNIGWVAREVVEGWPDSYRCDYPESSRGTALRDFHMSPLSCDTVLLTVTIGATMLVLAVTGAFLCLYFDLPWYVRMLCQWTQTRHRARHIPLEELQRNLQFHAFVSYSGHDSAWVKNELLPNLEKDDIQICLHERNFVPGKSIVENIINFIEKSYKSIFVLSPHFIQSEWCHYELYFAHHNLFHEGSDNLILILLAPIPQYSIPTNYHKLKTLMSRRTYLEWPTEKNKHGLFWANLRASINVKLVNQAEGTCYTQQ
Sequence of TLR1/TLR2 (Mus musculus, UniProt Q9EPQ1+Q9QUN7) (Q9QUN7 25-784): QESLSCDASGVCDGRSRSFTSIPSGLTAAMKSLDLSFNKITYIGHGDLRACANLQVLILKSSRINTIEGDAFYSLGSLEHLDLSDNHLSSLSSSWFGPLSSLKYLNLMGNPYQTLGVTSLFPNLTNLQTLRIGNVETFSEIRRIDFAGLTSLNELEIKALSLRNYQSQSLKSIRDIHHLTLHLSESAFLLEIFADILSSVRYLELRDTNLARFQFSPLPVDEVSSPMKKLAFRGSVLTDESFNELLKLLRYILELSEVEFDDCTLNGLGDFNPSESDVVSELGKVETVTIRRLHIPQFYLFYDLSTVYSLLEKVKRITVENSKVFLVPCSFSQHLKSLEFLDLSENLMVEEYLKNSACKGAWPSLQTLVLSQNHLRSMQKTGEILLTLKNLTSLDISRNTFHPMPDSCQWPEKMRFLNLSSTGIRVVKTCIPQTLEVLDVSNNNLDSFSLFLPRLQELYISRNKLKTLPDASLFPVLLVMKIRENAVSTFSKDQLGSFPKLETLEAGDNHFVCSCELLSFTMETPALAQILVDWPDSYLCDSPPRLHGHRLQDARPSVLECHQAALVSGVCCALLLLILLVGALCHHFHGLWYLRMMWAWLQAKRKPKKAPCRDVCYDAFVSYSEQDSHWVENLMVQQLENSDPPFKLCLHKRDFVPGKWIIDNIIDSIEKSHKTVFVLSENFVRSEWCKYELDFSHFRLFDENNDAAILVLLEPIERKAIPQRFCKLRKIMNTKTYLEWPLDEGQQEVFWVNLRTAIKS

[2] = biological target: TLR1/TLR2 (Homo sapiens, UniProt O60603+Q15399); assay: TNF-α release from PMA-differentiated human THP-1 cells (ELISA); settings: for Emax: THP-1, 4 h, read-out: Efficacy (magnitude) of response versus diprovocim-1 (100%), THP-1; for EC50: read-out: EC50 (nM) (THP-1): EC50 TNF-α release from human THP-1 cells;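 on all read-outs here: cells exposed to graded compound concentrations for 4 h, TNF-α quantified in supernatant, LPS as positive and DMSO as negative control, values are duplicate means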
Sequence of TLR1/TLR2 (Homo sapiens, UniProt O60603+Q15399) (Q15399 25-786): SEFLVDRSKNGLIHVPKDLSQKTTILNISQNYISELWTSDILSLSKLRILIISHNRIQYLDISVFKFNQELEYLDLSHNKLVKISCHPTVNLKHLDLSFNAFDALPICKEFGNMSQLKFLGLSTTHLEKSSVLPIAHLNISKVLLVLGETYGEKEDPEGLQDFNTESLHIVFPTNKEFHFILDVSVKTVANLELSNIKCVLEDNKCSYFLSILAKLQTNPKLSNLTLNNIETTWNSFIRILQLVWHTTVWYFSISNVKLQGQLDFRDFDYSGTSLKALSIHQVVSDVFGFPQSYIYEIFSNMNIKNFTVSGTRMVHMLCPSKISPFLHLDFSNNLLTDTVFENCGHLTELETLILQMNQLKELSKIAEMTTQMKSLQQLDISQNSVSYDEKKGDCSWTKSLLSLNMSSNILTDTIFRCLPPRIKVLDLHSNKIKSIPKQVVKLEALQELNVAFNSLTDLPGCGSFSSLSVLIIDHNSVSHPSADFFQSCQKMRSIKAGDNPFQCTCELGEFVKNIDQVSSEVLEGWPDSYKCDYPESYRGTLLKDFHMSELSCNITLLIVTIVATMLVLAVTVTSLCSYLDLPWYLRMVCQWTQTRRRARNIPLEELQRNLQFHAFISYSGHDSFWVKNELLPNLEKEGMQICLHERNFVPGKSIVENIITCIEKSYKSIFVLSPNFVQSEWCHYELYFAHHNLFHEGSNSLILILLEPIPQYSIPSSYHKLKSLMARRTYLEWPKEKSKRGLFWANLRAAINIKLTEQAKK
Sequence of TLR1/TLR2 (Homo sapiens, UniProt O60603+Q15399) (O60603 21-784): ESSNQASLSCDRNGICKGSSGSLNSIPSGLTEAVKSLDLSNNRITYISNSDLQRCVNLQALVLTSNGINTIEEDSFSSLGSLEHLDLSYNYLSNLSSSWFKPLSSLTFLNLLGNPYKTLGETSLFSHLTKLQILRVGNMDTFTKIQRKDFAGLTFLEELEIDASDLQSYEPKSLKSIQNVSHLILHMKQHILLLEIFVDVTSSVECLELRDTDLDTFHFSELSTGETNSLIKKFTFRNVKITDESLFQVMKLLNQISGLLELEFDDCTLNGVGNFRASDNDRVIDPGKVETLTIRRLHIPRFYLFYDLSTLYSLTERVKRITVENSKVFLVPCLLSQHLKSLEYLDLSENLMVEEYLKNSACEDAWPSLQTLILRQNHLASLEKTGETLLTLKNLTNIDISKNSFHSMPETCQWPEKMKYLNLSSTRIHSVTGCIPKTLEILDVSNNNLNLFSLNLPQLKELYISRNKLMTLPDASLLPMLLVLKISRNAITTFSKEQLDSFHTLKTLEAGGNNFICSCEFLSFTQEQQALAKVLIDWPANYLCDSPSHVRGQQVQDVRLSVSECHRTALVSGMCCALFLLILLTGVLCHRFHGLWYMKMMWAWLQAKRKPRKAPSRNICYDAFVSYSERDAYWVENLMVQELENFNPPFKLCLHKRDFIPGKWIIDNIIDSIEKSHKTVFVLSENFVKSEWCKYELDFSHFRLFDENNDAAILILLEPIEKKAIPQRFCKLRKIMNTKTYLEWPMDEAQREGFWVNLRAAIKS

Row | Emax [1] | Emax [2] | EC50 ([1]; Table 1) | SMILES | further results
1 | 130% | 90% | – | Nc1ccc(COCCCCCCCCCCCCNC(=O)[C@@H]2CN(C(=O)c3ccc(C(=O)N4C[C@@H](C(=O)N[C@H]5C[C@@H]5c5ccccc5)[C@H](C(=O)N[C@H]5C[C@@H]5c5ccccc5)C4)cc3)C[C@H]2C(=O)N[C@H]2C[C@@H]2c2ccccc2)cc1 [Compound 52, (3S,4S)—N^3-(12-((4-Aminobenzyl)oxy)dodecyl)-1-(4-((3S,4S)-3,4-bis(((1S,2R)-2-phenyl-cyclopropyl)carbamoyl)pyrrolidine-1-carbonyl)-benzoyl)-N^4-((1S,2R)-2-phenylcyclopropyl)pyrrolidine-3,4-dicarboxamide] | EC50 ([1]; Table 3): 2 nM; EC50 ([2]; Table 3): 0.26 nM
2 | 60% | 100% | – | O=C(CNC(=O)c1ccc(C(=O)O)cc1)OCCCCCCCCCCCCNC(=O)[C@@H]1CN(C(=O)c2ccc(C(=O)N3C[C@@H](C(=O)N[C@H]4C[C@@H]4c4ccccc4)[C@H](C(=O)N[C@H]4C[C@@H]4c4ccccc4)C3)cc2)C[C@H]1C(=O)N[C@H]1C[C@@H]1c1ccccc1 [Compound 80, 4-((2-((12-((3S,4S)-1-(4-((3S,4S)-3,4-Bis(((1S,2R)-2-phenylcyclopropyl)carbamoyl)pyrrolidine-1-carbonyl)-benzoyl)-4-(((1S,2R)-2-phenylcyclopropyl)carbamoyl)-pyrrolidine-3-carboxamido)-dodecyl)oxy)-2-oxoethyl)carbamoyl)benzoic acid] | EC50 ([1]; Table 6): 5 nM; EC50 ([2]; Table 6): 0.17 nM
3 | 120% | 70% | 2.8 nM | CC(C)(C)OC(=O)NCCCCCCCCCCCCNC(=O)[C@@H]1CN(C(=O)c2ccc(C(=O)N3C[C@@H](C(=O)N[C@H]4C[C@@H]4c4ccccc4)[C@H](C(=O)N[C@H]4C[C@@H]4c4ccccc4)C3)cc2)C[C@H]1C(=O)N[C@H]1C[C@@H]1c1ccccc1 [Compound 17, tert-Butyl (12-((3S,4S)-1-(4-((3S,4S)-3,4-bis(((1S,2R)-2-phenylcyclopropyl)carbamoyl)-pyrrolidine-1-carbonyl)benzoyl)-4-(((1S,2R)-2-phenylcyclopropyl)carbamoyl)pyrrolidine-3-carboxamido)dodecyl)carbamate] | EC50 ([2]; Table 1): 0.18 nM
4 | – | – | 1 nM | O=C(NCCc1ccc(F)cc1)[C@@H]1CN(C(=O)c2ccc(C(=O)N3C[C@@H](C(=O)N[C@H]4C[C@@H]4c4ccccc4)[C@H](C(=O)N[C@H]4C[C@@H]4c4ccccc4)C3)cc2)C[C@H]1C(=O)N[C@H]1C[C@@H]1c1ccccc1 [Compound 25, (3S,4S)-1-(4-((3S,4S)-3,4-Bis(((1S,2R)-2-phenylcyclo-propyl)carbamoyl)pyrrolidine-1-carbonyl)-benzoyl)-N^3-(4-fluorophenethyl)-N^4-((1S,2R)-2-phenylcyclopropyl)-pyrrolidine-3,4-dicarboxamide] | EC50 ([2]; Table 1): 0.5 nM
5 | – | 110% | – | COC(=O)CCOCCOCCOCCNC(=O)[C@@H]1CN(C(=O)c2ccc(C(=O)N3C[C@@H](C(=O)N[C@H]4C[C@@H]4c4ccccc4)[C@H](C(=O)N[C@H]4C[C@@H]4c4ccccc4)C3)cc2)C[C@H]1C(=O)N[C@H]1C[C@@H]1c1ccccc1 [Compound 29, Methyl 1-((3S,4S)-1-(4-((3S,4S)-3,4-bis(((1S,2R)-2-phenylcyclopropyl)carbamoyl)pyrrolidine-1-carbonyl)benzoyl)-4-(((1S,2R)-2-phenylcyclopropyl)carbamoyl)-pyrrolidin-3-yl)-1-oxo-5,8,11-trioxa-2-azatetradecan-14-oate] | EC50 ([2]; Table 2): 40 nM

The remaining lines, values behind:

Row | SMILES | Emax [1] | Emax [2] | EC50 ([1]; Table 1) | further results
6 | CC(C)(C)OC(=O)CNC(=O)CCCCCCCCCCCNC(=O)[C@@H]1CN(C(=O)c2ccc(C(=O)N3C[C@@H](C(=O)N[C@H]4C[C@@H]4c4ccccc4)[C@H](C(=O)N[C@H]4C[C@@H]4c4ccccc4)C3)cc2)C[C@H]1C(=O)N[C@H]1C[C@@H]1c1ccccc1 [Compound 14, tert-Butyl (12-((3S,4S)-1-(4-((3S,4S)-3,4-bis(((1S,2R)-2-phenylcyclopropyl)carbamoyl)-pyrrolidine-1-carbonyl)-benzoyl)-4-(((1S,2R)-2-phenylcyclopropyl)carbamoyl)pyrrolidine-3-carboxamido)dodecanoyl)glycinate] | 70% | 100% | 25 nM | EC50 ([2]; Table 1): 20 nM
7 | CC(C)(C)OCC(=O)OCCCCCCCCCCCCNC(=O)[C@@H]1CN(C(=O)c2ccc(C(=O)N3C[C@@H](C(=O)N[C@H]4C[C@@H]4c4ccccc4)[C@H](C(=O)N[C@H]4C[C@@H]4c4ccccc4)C3)cc2)C[C@H]1C(=O)N[C@H]1C[C@@H]1c1ccccc1 [Compound 47, 12-((3S,4S)-1-(4-((3S,4S)-3,4-Bis(((1S,2R)-2-phenylcyclopropyl)carbamoyl)pyrrolidine-1-carbonyl)benzoyl)-4-(((1S,2R)-2-phenylcyclopropyl)-carbamoyl)pyrrolidine-3-carboxamido)dodecyl 2-(tert-butoxy)acetate] | 230% | 100% | – | EC50 ([1]; Table 3): 5 nM; EC50 ([2]; Table 3): 0.65 nM
8 | C[C@H](NC(=O)OC(C)(C)C)C(=O)OCCCCCCCCCCCCNC(=O)[C@@H]1CN(C(=O)c2ccc(C(=O)N3C[C@@H](C(=O)N[C@H]4C[C@@H]4c4ccccc4)[C@H](C(=O)N[C@H]4C[C@@H]4c4ccccc4)C3)cc2)C[C@H]1C(=O)N[C@H]1C[C@@H]1c1ccccc1 [Compound 57, (S)-12-((3S,4S)-1-(4-((3S,4S)-3,4-Bis(((1S,2R)-2-phenylcyclopropyl)carbamoyl)pyrrolidine-1-carbonyl)-benzoyl)-4-(((1S,2R)-2-phenylcyclopropyl)carbamoyl)-pyrrolidine-3-carboxamido)-dodecyl 2-((tert-butoxycarbonyl)amino)propanoate] | 200% | 80% | – | EC50 ([1]; Table 5): 0.67 nM; EC50 ([2]; Table 5): 0.25 nM
9 | CC(C)(C)OC(=O)c1ccc(C(=O)OCCCCCCCCCCCCNC(=O)[C@@H]2CN(C(=O)c3ccc(C(=O)N4C[C@@H](C(=O)N[C@H]5C[C@@H]5c5ccccc5)[C@H](C(=O)N[C@H]5C[C@@H]5c5ccccc5)C4)cc3)C[C@H]2C(=O)N[C@H]2C[C@@H]2c2ccccc2)cc1 [Compound 77, 12-((3S,4S)-1-(4-((3S,4S)-3,4-Bis(((1S,2R)-2-phenylcyclopropyl)carbamoyl)pyrrolidine-1-carbonyl)benzoyl)-4-(((1S,2R)-2-phenyl-cyclopropyl)carbamoyl)pyrrolidine-3-carboxamido)-dodecyl tert-butyl terephthalate] | 190% | 90% | – | EC50 ([1]; Table 6): 785 nM; EC50 ([2]; Table 6): 165 nM
10 | [N-]=[N+]=NCC(=O)OCCCCCCCCCCCCNC(=O)[C@@H]1CN(C(=O)c2ccc(C(=O)N3C[C@@H](C(=O)N[C@H]4C[C@@H]4c4ccccc4)[C@H](C(=O)N[C@H]4C[C@@H]4c4ccccc4)C3)cc2)C[C@H]1C(=O)N[C@H]1C[C@@H]1c1ccccc1 [Compound 34, 12-((3S,4S)-1-(4-((3S,4S)-3,4-Bis(((1S,2R)-2-phenylcyclopropyl)carbamoyl)pyrrolidine-1-carbonyl)-benzoyl)-4-(((1S,2R)-2-phenylcyclopropyl)carbamoyl)-pyrrolidine-3-carboxamido)dodecyl 2-azidoacetate] | 120% | 100% | – | EC50 ([1]; Table 3): 3.7 nM; EC50 ([2]; Table 3): 0.21 nM
11 | COC(=O)CCCCCCCCCNC(=O)[C@@H]1CN(C(=O)c2ccc(C(=O)N3C[C@@H](C(=O)N[C@H]4C[C@@H]4c4ccccc4)[C@H](C(=O)N[C@H]4C[C@@H]4c4ccccc4)C3)cc2)C[C@H]1C(=O)N[C@H]1C[C@@H]1c1ccccc1 [Compound 4, Methyl 10-((3S,4S)-1-(4-((3S,4S)-3,4-bis(((1S,2R)-2-phenylcyclopropyl)carbamoyl)pyrrolidine-1-carbonyl)-benzoyl)-4-(((1S,2R)-2-phenylcyclopropyl)-carbamoyl)-pyrrolidine-3-carboxamido)-decanoate] | – | 100% | – | –
12 | COC(=O)CCCCCCCCCCCNC(=O)[C@@H]1CN(C(=O)c2ccc(C(=O)N3C[C@@H](C(=O)N[C@H]4C[C@@H]4c4ccccc4)[C@H](C(=O)N[C@H]4C[C@@H]4c4ccccc4)C3)cc2)C[C@H]1C(=O)N[C@H]1C[C@@H]1c1ccccc1 [Compound 3, Methyl 12-((3S,4S)-1-(4-((3S,4S)-3,4-bis(((1S,2R)-2-phenylcyclopropyl)carbamoyl)pyrrolidine-1-carbonyl)-benzoyl)-4-(((1S,2R)-2-phenylcyclopropyl)-carbamoyl)-pyrrolidine-3-carboxamido)-dodecanoate] | 100% | – | 1.4 nM | –
13 | CC(C)(C)OC(=O)CCOCCOCCOCCNC(=O)[C@@H]1CN(C(=O)c2ccc(C(=O)N3C[C@@H](C(=O)N[C@H]4C[C@@H]4c4ccccc4)[C@H](C(=O)N[C@H]4C[C@@H]4c4ccccc4)C3)cc2)C[C@H]1C(=O)N[C@H]1C[C@@H]1c1ccccc1 [Compound 28, tert-Butyl 1-((3S,4S)-1-(4-((3S,4S)-3,4-bis(((1S,2R)-2-phenylcyclopropyl)carbamoyl)pyrrolidine-1-carbonyl)-benzoyl)-4-(((1S,2R)-2-phenylcyclopropyl)carbamoyl)-pyrrolidin-3-yl)-1-oxo-5,8,11-trioxa-2-azatetradecan-14-oate] | – | – | – | EC50 ([2]; Table 2): 3.1 nM
